Reference: publication PMC10460728 (Journal of Pharmacokinetics and Pharmacodynamics, 2023)
Where two headings read alike, the source gives them in different places.

Assays:
P-gp = P-gp mRNA induction in cultured human hepatocytes; assay type: cell-based
CYP2B6 = CYP2B6 mRNA induction in cultured human hepatocytes
intestinal P-gp = settings: multiple-dose 600 mg rifampicin, Western blot; cited from earlier work
CYP3A = settings: multiple oral 600 mg rifampicin; cited from earlier work
CYP3A4 [1] = settings: cited from earlier work
CYP1A2 = CYP1A2 mRNA induction in cultured human hepatocytes
Method: (§1) Hepatocytes were cultured according to previously described methods [8]. […] Single-stranded cDNA was prepared from RNA with the RT Master Mix using the AB 7900HT Fast Real Time PCR System thermocycling program. Quantitative RT-PCR was carried out in triplicate. Relative quantification measures the change in mRNA expression in a test sample relative to that in a control sample (e.g., DMSO). This method assumes that the efficiency of the target amplification and the efficiency of the endogenous control amplification are approximately equal.
(§2) The maximal fold induction (Indmax) and half concentration to reach Indmax (IndC50) were determined based on the following equation: Foldinduction=1+Indmax-1×Ct/IndC50+Ct where Ct is the test drug concentration.

CYP2C9 = CYP2C9 mRNA induction in cultured human hepatocytes
Method: as §1, §2

CYP2C8 = CYP2C8 mRNA induction in cultured human hepatocytes
Method: as §1, §2

CYP3A4 [2] = system: CYP3A4
Method: as §1, §2

P-gp (human MDR1) = P-gp (human MDR1) (Homo sapiens, UniProt P08183); assay: In vitro P-gp inhibition: 3H-digoxin permeation across control and MDR1-expressing LLC-PK1 cell monolayers; settings: for Control cells Papp ratio / Corrected Papp ratio / MDR1-expressing cells Papp ratio: 3H-digoxin 1 µmol/L
Sequence of P-gp (human MDR1) (P08183 whole entry): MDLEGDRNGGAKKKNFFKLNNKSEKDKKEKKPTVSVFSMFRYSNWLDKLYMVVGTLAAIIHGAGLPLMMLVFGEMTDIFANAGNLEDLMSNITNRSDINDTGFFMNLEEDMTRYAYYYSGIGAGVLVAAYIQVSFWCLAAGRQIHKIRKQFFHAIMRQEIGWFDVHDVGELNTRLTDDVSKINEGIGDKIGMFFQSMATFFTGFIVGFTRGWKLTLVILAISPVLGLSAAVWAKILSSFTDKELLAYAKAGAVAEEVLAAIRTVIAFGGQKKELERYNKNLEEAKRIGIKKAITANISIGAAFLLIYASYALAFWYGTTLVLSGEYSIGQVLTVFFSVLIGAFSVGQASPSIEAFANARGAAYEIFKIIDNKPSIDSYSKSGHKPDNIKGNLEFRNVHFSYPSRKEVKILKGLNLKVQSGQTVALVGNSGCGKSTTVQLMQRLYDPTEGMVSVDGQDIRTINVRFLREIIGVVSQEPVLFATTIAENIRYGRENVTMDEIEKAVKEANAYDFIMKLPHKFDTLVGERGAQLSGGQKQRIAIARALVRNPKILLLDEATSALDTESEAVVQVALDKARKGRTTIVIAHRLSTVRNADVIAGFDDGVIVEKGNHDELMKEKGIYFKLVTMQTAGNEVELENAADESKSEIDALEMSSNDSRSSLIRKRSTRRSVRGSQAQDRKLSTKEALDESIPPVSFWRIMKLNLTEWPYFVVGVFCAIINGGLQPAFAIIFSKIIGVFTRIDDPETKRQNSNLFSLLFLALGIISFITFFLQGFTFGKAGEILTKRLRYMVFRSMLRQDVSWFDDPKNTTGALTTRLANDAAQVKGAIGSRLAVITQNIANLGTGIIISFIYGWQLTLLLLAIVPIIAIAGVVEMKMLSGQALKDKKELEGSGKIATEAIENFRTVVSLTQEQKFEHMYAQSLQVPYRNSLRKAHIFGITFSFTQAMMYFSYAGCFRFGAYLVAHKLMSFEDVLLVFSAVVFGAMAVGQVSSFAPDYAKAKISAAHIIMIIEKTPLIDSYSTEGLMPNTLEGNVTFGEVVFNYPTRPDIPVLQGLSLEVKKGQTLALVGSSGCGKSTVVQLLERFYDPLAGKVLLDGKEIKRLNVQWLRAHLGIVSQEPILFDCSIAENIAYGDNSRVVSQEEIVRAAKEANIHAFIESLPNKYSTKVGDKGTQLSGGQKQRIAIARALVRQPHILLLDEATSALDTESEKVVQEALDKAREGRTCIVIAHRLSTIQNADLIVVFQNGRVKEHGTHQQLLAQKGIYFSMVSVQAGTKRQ
Method: MDR1-expressing cells (porcine kidney epithelial LLC-PK1 cells transfected with human MDR1 cDNA) was used. The MDR1-expressing cells were seeded at a density of 4 × 10^4 cells/insert in plates and were incubated in a CO2 incubator (37 °C, CO2: 5%) for 7 to 9 days to prepare cell monolayers. […] After incubation for 4 h at 37 °C, a 70-μL aliquot of the incubation solutions was collected as the analytical sample from the opposite compartment of that spiked with test solutions (receiver compartment). The collected samples were immediately combined with 10 mL of scintillator, and the radioactivity was counted using the LSC. Permeability coefficient (Papp) of ^3H-digoxin was calculated using the following equation: Pappcm/sec=[dQ/dt]/A/C0 where dQ/dt is the transport rate (dpm/sec); A is the membrane area (cm^2); C0 is the initial concentration (dpm/mL). The ratio of permeability coefficient (Papp ratio) was calculated from the basal to apical Papp and apical to basal Papp according to the following equation: Pappratio=BasaltoapicalPapp/ApicaltobasalPapp
Furthermore, the ratios of the Papp ratios in MDR1-expressing cells to the Papp ratios in control cells were calculated as corrected Papp ratio according to the following equation: CorrectedPappratio=PappratiooftheMDR1expressingcells/Pappratioofthecontrolcells
The % of control was calculated from the corrected Papp ratio according to the following equation: \% \,of\,control=CorrectedPappratio\,in\,the\,absence\,or\,presence\,of\,inhibitors/CorrectedPappratio\,in\,the\,absence\,of\,inhibitors×100

CYP2C19 = CYP2C19 mRNA induction in cultured human hepatocytes
Method: as §1, §2

[3] = multiple 160 mg doses of enzalutamide, mean (SD)
[4] = with/without enzalutamide 160 mg multiple doses, geometric mean ratio (90% CI)
[5] = 100 µmol/L (enzalutamide, M2: two lots of hepatocyte)

SMILES: CCC1(c2ccccc2)C(=O)NC(=O)NC1=O [Phenobarbital, phenobarbital, reference compound]
- Fold increase P-gp mRNA (P-gp; 750 µmol/L): 2.61 ± 0.59 fold
- Fold increase CYP2B6 mRNA (CYP2B6; 750 µmol/L): 6.90 ± 3.66 fold

SMILES: CO[C@H]1/C=C/O[C@@]2(C)Oc3c(C)c(O)c4c(O)c(c(/C=N/N5CCN(C)CC5)c(O)c4c3C2=O)NC(=O)/C(C)=C\C=C\[C@H](C)[C@H](O)[C@@H](C)[C@@H](O)[C@@H](C)[C@H](OC(C)=O)[C@@H]1C [Rifampicin, rifampicin]
- Increase in intestinal P-gp expression (intestinal P-gp): 3.5 fold

SMILES: Cc1ncc2n1-c1ccc(Cl)cc1C(c1ccccc1F)=NC2 [Midazolam, midazolam]
- Decrease in midazolam AUC by rifampicin (CYP3A): more than 90%
- Midazolam AUC ratio with rifampicin (CYP3A): less than 0.1
- AUC without enzalutamide, observed (CYP3A4 [1]; mean (SD)): 32.0 (12.8) ng·h/mL
- Cmax without enzalutamide, observed (CYP3A4 [1]; mean (SD)): 9.98 (3.17) ng/mL
- AUC with enzalutamide, observed (CYP3A4 [1]; [3]): 4.22 (0.784) ng·h/mL
- Cmax with enzalutamide, observed (CYP3A4 [1]; [3]): 2.29 (0.868) ng/mL
- AUC ratio, observed (CYP3A4 [1]; [4]): 0.14 (0.12–0.17)
- Cmax ratio, observed (CYP3A4 [1]; [4]): 0.23 (0.20–0.27)

SMILES: CC1(C)C(=O)N(c2ccc(C#N)c(C(F)(F)F)c2)C(=S)N1c1ccc(C(=O)O)c(F)c1 [M1]
- Fold increase CYP1A2 mRNA (CYP1A2; 1 µmol/L): 0.697 ± 0.260 fold
- Fold increase CYP1A2 mRNA (CYP1A2; 10 µmol/L): 0.883 ± 0.303 fold
- Fold increase CYP1A2 mRNA (CYP1A2; [5]): 1.01 ± 0.59 fold
- Fold increase CYP2C9 mRNA (CYP2C9; 1 µmol/L): 0.853 ± 0.361 fold
- Fold increase CYP2C9 mRNA (CYP2C9; 10 µmol/L): 0.888 ± 0.172 fold
- Fold increase CYP2C9 mRNA (CYP2C9; [5]): 1.52 ± 0.63 fold
- Fold increase CYP2C8 mRNA (CYP2C8; 1 µmol/L): 1.11 ± 0.53 fold
- Fold increase CYP2C8 mRNA (CYP2C8; 10 µmol/L): 1.44 ± 0.50 fold
- Fold increase CYP2C8 mRNA (CYP2C8; [5]): 2.35 ± 1.66 fold
- Fold increase P-gp mRNA (P-gp; 1 µmol/L): 0.885 ± 0.553 fold
- Fold increase P-gp mRNA (P-gp; 10 µmol/L): 1.46 ± 0.79 fold
- Fold increase P-gp mRNA (P-gp; [5]): 1.32 ± 0.25 fold
- Fold increase CYP2B6 mRNA (CYP2B6; 1 µmol/L): 0.724 ± 0.316 fold
- Fold increase CYP2B6 mRNA (CYP2B6; 10 µmol/L): 1.03 ± 0.43 fold
- Fold increase CYP2B6 mRNA (CYP2B6; [5]): 0.848 ± 0.337 fold
- Fold increase CYP3A4 mRNA (CYP3A4 [2]; 1 µmol/L): 0.832 ± 0.417 fold
- Fold increase CYP3A4 mRNA (CYP3A4 [2]; 10 µmol/L): 1.17 ± 0.46 fold
- Fold increase CYP3A4 mRNA (CYP3A4 [2]; hepatocytes): 1.83 ± 0.98 fold
- Control cells Papp ratio (P-gp (human MDR1); additive 0.3 µmol/L): 1.3
- Corrected Papp ratio (P-gp (human MDR1); additive 0.3 µmol/L): 13.2
- MDR1-expressing cells Papp ratio (P-gp (human MDR1); additive 0.3 µmol/L): 17.1
- Control cells Papp ratio (P-gp (human MDR1); additive 1 µmol/L): 1.2
- Corrected Papp ratio (P-gp (human MDR1); additive 1 µmol/L): 17.4
- MDR1-expressing cells Papp ratio (P-gp (human MDR1); additive 1 µmol/L): 20.9
- Control cells Papp ratio (P-gp (human MDR1); additive 3 µmol/L): 1.0
- Corrected Papp ratio (P-gp (human MDR1); additive 3 µmol/L): 19.2
- MDR1-expressing cells Papp ratio (P-gp (human MDR1); additive 3 µmol/L): 19.2
- Control cells Papp ratio (P-gp (human MDR1); additive 10 µmol/L): 1.0
- Corrected Papp ratio (P-gp (human MDR1); additive 10 µmol/L): 21.7
- MDR1-expressing cells Papp ratio (P-gp (human MDR1); additive 10 µmol/L): 21.7
- Control cells Papp ratio (P-gp (human MDR1); additive 30 µmol/L): 1.0
- Corrected Papp ratio (P-gp (human MDR1); additive 30 µmol/L): 18.3
- MDR1-expressing cells Papp ratio (P-gp (human MDR1); additive 30 µmol/L): 18.3
- Control cells Papp ratio (P-gp (human MDR1); additive 80 µmol/L): 1.0
- Corrected Papp ratio (P-gp (human MDR1); additive 80 µmol/L): 21.3
- MDR1-expressing cells Papp ratio (P-gp (human MDR1); additive 80 µmol/L): 21.3
- Inhibition of P-gp-mediated 3H-digoxin transport (P-gp (human MDR1); result in words): did not inhibit
- Fold increase CYP2C19 mRNA (CYP2C19; 1 µmol/L): 0.855 ± 0.246 fold
- Fold increase CYP2C19 mRNA (CYP2C19; 10 µmol/L): 1.06 ± 0.10 fold
- Fold increase CYP2C19 mRNA (CYP2C19; [5]): 1.55 ± 0.80 fold
